The text below walks through data of patent US7375083B2, “Pharmaceutical compositions for prevention of overdose or abuse” (Shire LLC, priority 2003, dated 2008).

Series [1] in a line: Intravenous bioavailability in rats, plasma d-amphetamine by ELISA. The note with it: relative to amphetamine. For orientation: ELISA stands for enzyme-linked immunosorbent assay.
The nature of series [2]: Kitchen tests: release of amphetamine by water, acid, base and heat. Conditions: heated to boiling for 20-60 minutes.
The nature of series [3]: Oral pharmacokinetics in rats, plasma d-amphetamine by ELISA. The note with it: Oral, relative to amphetamine (first value where two are given).
Series [4] is described as follows: Intravenous bioavailability of oxycodone conjugates in rats, LC/MS/MS. The note with it: 1 mg/kg dose; for AUC 0-1 h / AUC Percent OC / Cmax / Cmax Percent OC: oxycodone plus oxymorphone.
Series [5] can be described thus: Intranasal bioavailability of oxycodone conjugates in rats, LC/MS/MS. The note with it: 1 mg/kg dose.

`CC(Cc1ccccc1)NC(=O)C(N)Cc1ccccc1` (centres unmarked) [F-Amp]: in series [1], the “Percent AUC” value is given as 87% and the “Percent Cmax” value is given as 89%.
Take `CC(Cc1ccccc1)NC(=O)CNC(=O)CNC(=O)CN` (centres unmarked) [Gly3-Amp, 2-Amino-N-({[(1-methyl-2-phenyl-ethylcarbomyl)-methyl]-carbomyl}-methyl)-acetamide]: in series [2], the “amphetamine detected after treatment: Baking Powder” value is on record as 0%, the “amphetamine detected after treatment: Baking Soda” value came out at 0%, the “amphetamine detected after treatment: Tap Water” value was 0% and the “amphetamine detected after treatment: Vinegar” value is listed as 0%.
`CC(Cc1ccccc1)NC(=O)C(O)C(O)C(O)C(O)CO` (centres unmarked) [Gulonate-Amp]: in series [3], the “Percent AUC” value is 1% and the “Percent Cmax” value was 1%. In series [1], the “Percent AUC” value is 3% and the “Percent Cmax” value is 5%.
For the compound `C[C@@H](Cc1ccccc1)NC(=O)[C@@H](N)CCCCN` [K-Amp], in series [3], the “Percent AUC” value is 98% and the “Percent Cmax” value is 55%. Further, in series [1], the “Percent AUC” value was determined as 3% and the “Percent Cmax” value is recorded as 3%.
As to `COc1ccc2c3c1O[C@H]1C(OC(=O)[C@H](CC(C)C)NC(=O)[C@@H]4CCCN4C(=O)[C@@H]4CCCN4)=CC[C@@]4(OC(=O)[C@H](CC(C)C)NC(=O)[C@@H]5CCCN5C(=O)[C@@H]5CCCN5)[C@@H](C2)N(C)CC[C@]314` [[PPL]2-OC, [PPL]2-Oxycodone], in series [4], the “Oxycodone plus oxymorphone level at 5 Minutes” value is 22, the “Oxycodone plus oxymorphone level at 15 Minutes” value is 19, the “Oxycodone plus oxymorphone level at 30 Minutes” value is reported as 19 and the “Oxycodone plus oxymorphone level at 60 Minutes” value was 43. Besides, in series [4], the “AUC 0-1 h” value was determined as 24 ng·h/mL, the “AUC Percent OC” value is given as 29%, the Cmax turned out to be 43 ng/mL and the “Cmax Percent OC” value was found to be 43%. Besides, in series [5], the “Oxycodone plus oxymorphone level at 5 Minutes” value turned out to be 1380, the “Oxycodone plus oxymorphone level at 15 Minutes” value is on record as 499, the “Oxycodone plus oxymorphone level at 30 Minutes” value came to 390 and the “Oxycodone plus oxymorphone level at 60 Minutes” value amounted to 98. Also, in series [5] (oxycodone plus oxymorphone), the “AUC Percent OC” value is listed as 61% and the “Cmax Percent OC” value turned out to be 65%.
Take Oxycodone Bitartrate: in series [4], the “Oxycodone plus oxymorphone level at 5 Minutes” value is on record as 99, the “Oxycodone plus oxymorphone level at 15 Minutes” value is given as 104, the “Oxycodone plus oxymorphone level at 30 Minutes” value worked out at 94 and the “Oxycodone plus oxymorphone level at 60 Minutes” value worked out at 51. Also, in series [4], the “AUC 0-1 h” value was determined as 82 ng·h/mL, the “AUC Percent OC” value was 100%, the Cmax was 99 ng/mL and the “Cmax Percent OC” value is recorded as 100%. In series [5], the “Oxycodone plus oxymorphone level at 5 Minutes” value came to 2128, the “Oxycodone plus oxymorphone level at 15 Minutes” value is 1003, the “Oxycodone plus oxymorphone level at 30 Minutes” value stood at 688 and the “Oxycodone plus oxymorphone level at 60 Minutes” value is 278. Further, in series [5] (oxycodone plus oxymorphone), the “AUC 0-1 h” value turned out to be 428 ng·h/mL, the “AUC Percent OC” value is listed as 100%, the Cmax turned out to be 2128 ng/mL and the “Cmax Percent OC” value worked out at 100%.

In general, Cmax refers to the maximum level reached in the sampled fluid or tissue.
